Laboratory results as given in patent publication US20260130395A1, “Water Dispersible Botanical Compositions” (Aquila Black Limited, priority 2021, published 2026).

Legend:
[1] = Stability of Nanoemulsion Concentrate 3 (α-tocopherol and Vitamin B12 content) by LCMSMS; format: physicochemical; details: for Stability of α-tocopherol in Nanoemulsion Concentrate 3: average of triplicate
Procedure: At each time period (0, 7, 28, 60, 120, 150 and 180 days), triplicate samples were analysed for content of α-tocopherol and Vitamin B12.
(FIGS. 14 and 15, Table 13). Data reported in Table 13 and plotted in FIGS. 14 and 15 are average values of the triplicate measurements taken.

[2] = Stability of cannabinoid compounds and Vitamin E components in Beverage 2 (AB Red) by LCMSMS; format: physicochemical

In the case of Cc1c(C)c2c(c(C)c1O)CC[C@@](C)(CCC[C@H](C)CCC[C@H](C)CCCC(C)C)O2 [α-Tocopherol], the “Stability of α-tocopherol in Nanoemulsion Concentrate 3” value (shortened to “Stability of α-tocopherol”) ([1]; Refrigerated (2-4° C.), 0 days) is reported as 0.25 mg/mL, the “Stability of α-tocopherol” value ([1]; Refrigerated (2-4° C.), 7 days) is reported as 0.25 mg/mL and the “Stability of α-tocopherol” value ([1]; Refrigerated (2-4° C.), 28 days) is reported as 0.23 mg/mL. The “Stability of α-tocopherol” value ([1]; Refrigerated (2-4° C.), 60 days) was 0.26 mg/mL, the “Stability of α-tocopherol” value ([1]; Refrigerated (2-4° C.), 120 days) was 0.26 mg/mL and the “Stability of α-tocopherol” value ([1]; Refrigerated (2-4° C.), 150 days) was 0.23 mg/mL. The “Stability of α-tocopherol” value ([1]; Refrigerated (2-4° C.), 180 days) was 0.27 mg/mL, the “Stability of α-tocopherol” value ([1]; Room Temperature (21-25° C.), 0 days) was 0.25 mg/mL and the “Stability of α-tocopherol” value ([1]; Room Temperature (21-25° C.), 7 days) was 0.21 mg/mL. The “Stability of α-tocopherol” value ([1]; Room Temperature (21-25° C.), 28 days) was 0.22 mg/mL, the “Stability of α-tocopherol” value ([1]; Room Temperature (21-25° C.), 60 days) was 0.23 mg/mL and the “Stability of α-tocopherol” value ([1]; Room Temperature (21-25° C.), 120 days) was 0.20 mg/mL. The “Stability of α-tocopherol” value ([1]; Room Temperature (21-25° C.), 150 days) was 0.21 mg/mL, the “Stability of α-tocopherol” value ([1]; Room Temperature (21-25° C.), 180 days) was 0.17 mg/mL and the “stability in Nanoemulsion Concentrate 3 (in words)” value ([1]; after 180 days stored at 21-25° C.) was “some slight degradation”. For the same compound, the “stability in Nanoemulsion Concentrate 3 (in words)” value ([1]; stored at 2-4° C., 180 days) was “high degree of stability”, the “Stability of Vitamin Es in AB Red” value ([2]; stored at 8° C., 0 days) was 25.3 µg/mL and the “Stability of Vitamin Es in AB Red” value ([2]; stored at 8° C., 1 days) was 25.2 µg/mL. The “Stability of Vitamin Es in AB Red” value ([2]; stored at 8° C., 2 days) was 24.9 µg/mL, the “Stability of Vitamin Es in AB Red” value ([2]; stored at 8° C., 3 days) was 25.3 µg/mL and the “Stability of Vitamin Es in AB Red” value ([2]; stored at 8° C., 5 days) was 24.2 µg/mL. The “Stability of Vitamin Es in AB Red” value ([2]; stored at 8° C., 8 days) was 23.7 µg/mL, the “Stability of Vitamin Es in AB Red” value ([2]; stored at 8° C., 9 days) was 24.6 µg/mL and the “Stability of Vitamin Es in AB Red” value ([2]; stored at 8° C., 10 days) was 24.9 µg/mL. The “Stability of Vitamin Es in AB Red” value ([2]; stored at 8° C., 11 days) was 23.9 µg/mL, the “Stability of Vitamin Es in AB Red” value ([2]; stored at 8° C., 12 days) was 24.4 µg/mL and the “Stability of Vitamin Es in AB Red” value ([2]; stored at 8° C., 15 days) was 25.6 µg/mL. For the same compound, the “Stability of Vitamin Es in AB Red” value ([2]; stored at 8° C., 16 days) was 24.5 µg/mL, the “Stability of Vitamin Es in AB Red” value ([2]; stored at 8° C., 17 days) was 23.6 µg/mL and the “Stability of Vitamin Es in AB Red” value ([2]; stored at 8° C., 18 days) was 24.1 µg/mL. For the same compound, the “Stability of Vitamin Es in AB Red” value ([2]; stored at 8° C., 19 days) was 24.0 µg/mL, the “Stability of Vitamin Es in AB Red” value ([2]; stored at 8° C., 22 days) was 25.0 µg/mL and the “Stability of Vitamin Es in AB Red” value ([2]; stored at 8° C., 23 days) was 23.2 µg/mL. The “Stability of Vitamin Es in AB Red” value ([2]; stored at 8° C., 24 days) was 24.3 µg/mL, the “Stability of Vitamin Es in AB Red” value ([2]; stored at 8° C., 25 days) was 23.6 µg/mL and the “Stability of Vitamin Es in AB Red” value ([2]; stored at 8° C., 26 days) was 25.2 µg/mL. For the same compound, the “Stability of Vitamin Es in AB Red” value ([2]; stored at 8° C., 29 days) was 23.5 µg/mL, the “Stability of Vitamin Es in AB Red” value ([2]; stored at 8° C., 30 days) was 24.2 µg/mL and the “Stability of Vitamin Es in AB Red” value ([2]; stored at 8° C., 60 days) was 24.2 µg/mL. The “Stability of Vitamin Es in AB Red” value ([2]; stored at 8° C., 90 days) was 23.1 µg/mL, the “Stability of Vitamin Es in AB Red” value ([2]; stored at 8° C., 120 days) was 25.2 µg/mL and the “Stability of Vitamin Es in AB Red” value ([2]; stored at 8° C., 150 days) was 25.4 µg/mL. For the same compound, the “Stability of Vitamin Es in AB Red” value ([2]; stored at 8° C., 180 days) was 23.6 µg/mL, the “Stability of Vitamin Es in AB Red” value ([2]; stored at 8° C., 210 days) was 23.5 µg/mL and the “Stability of Vitamin Es in AB Red” value ([2]; stored at 8° C., 240 days) was 23.6 µg/mL. For the same compound, the “Stability of Vitamin Es in AB Red” value ([2]; stored at 8° C., 270 days) was 23.6 µg/mL, the “Stability of Vitamin Es in AB Red” value ([2]; stored at 8° C., 300 days) was 23.1 µg/mL and the “Stability of Vitamin Es in AB Red” value ([2]; stored at 8° C., 330 days) was 22.9 µg/mL. For the same compound, the “Stability of Vitamin Es in AB Red” value ([2]; stored at 8° C., 360 days) was 22.4 µg/mL, the “Stability of Vitamin Es in AB Red” value ([2]; stored at 8° C., 390 days) was 23.1 µg/mL and the “Stability of Vitamin Es in AB Red” value ([2]; stored at 8° C., 420 days) was 22.3 µg/mL. The “Stability of Vitamin Es in AB Red” value ([2]; stored at 8° C., 450 days) was 22.7 µg/mL, the “Stability of Vitamin Es in AB Red” value ([2]; stored at 8° C., 480 days) was 21.8 µg/mL and the “Stability of Vitamin Es in AB Red” value ([2]; stored at 8° C., 510 days) was 22.0 µg/mL. For the same compound, the “Stability of Vitamin Es in AB Red” value ([2]; stored at 8° C., 540 days) was 21.8 µg/mL, the “Stability of Vitamin Es in AB Red” value ([2]; stored at 8° C., 570 days) was 21.5 µg/mL and the “Stability of Vitamin Es in AB Red” value ([2]; stored at 21-25° C., 0 days) was 25.3 µg/mL. The “Stability of Vitamin Es in AB Red” value ([2]; stored at 21-25° C., 1 days) was 24.4 µg/mL, the “Stability of Vitamin Es in AB Red” value ([2]; stored at 21-25° C., 2 days) was 24.1 µg/mL and the “Stability of Vitamin Es in AB Red” value ([2]; stored at 21-25° C., 3 days) was 23.8 µg/mL. For the same compound, the “Stability of Vitamin Es in AB Red” value ([2]; stored at 21-25° C., 5 days) was 22.9 µg/mL, the “Stability of Vitamin Es in AB Red” value ([2]; stored at 21-25° C., 8 days) was 24.5 µg/mL and the “Stability of Vitamin Es in AB Red” value ([2]; stored at 21-25° C., 9 days) was 23.3 µg/mL. The “Stability of Vitamin Es in AB Red” value ([2]; stored at 21-25° C., 10 days) was 23.0 µg/mL, the “Stability of Vitamin Es in AB Red” value ([2]; stored at 21-25° C., 11 days) was 24.4 µg/mL and the “Stability of Vitamin Es in AB Red” value ([2]; stored at 21-25° C., 12 days) was 23.4 µg/mL. For the same compound, the “Stability of Vitamin Es in AB Red” value ([2]; stored at 21-25° C., 15 days) was 24.8 µg/mL, the “Stability of Vitamin Es in AB Red” value ([2]; stored at 21-25° C., 16 days) was 25.1 µg/mL and the “Stability of Vitamin Es in AB Red” value ([2]; stored at 21-25° C., 17 days) was 24.4 µg/mL. For the same compound, the “Stability of Vitamin Es in AB Red” value ([2]; stored at 21-25° C., 18 days) was 24.9 µg/mL, the “Stability of Vitamin Es in AB Red” value ([2]; stored at 21-25° C., 19 days) was 25.4 µg/mL and the “Stability of Vitamin Es in AB Red” value ([2]; stored at 21-25° C., 22 days) was 25.4 µg/mL. For the same compound, the “Stability of Vitamin Es in AB Red” value ([2]; stored at 21-25° C., 23 days) was 24.6 µg/mL, the “Stability of Vitamin Es in AB Red” value ([2]; stored at 21-25° C., 24 days) was 23.5 µg/mL and the “Stability of Vitamin Es in AB Red” value ([2]; stored at 21-25° C., 25 days) was 25.5 µg/mL. The “Stability of Vitamin Es in AB Red” value ([2]; stored at 21-25° C., 26 days) was 24.3 µg/mL, the “Stability of Vitamin Es in AB Red” value ([2]; stored at 21-25° C., 29 days) was 24.4 µg/mL and the “Stability of Vitamin Es in AB Red” value ([2]; stored at 21-25° C., 30 days) was 24.6 µg/mL. For the same compound, the “Stability of Vitamin Es in AB Red” value ([2]; stored at 21-25° C., 60 days) was 24.4 µg/mL, the “Stability of Vitamin Es in AB Red” value ([2]; stored at 21-25° C., 90 days) was 24.3 µg/mL and the “Stability of Vitamin Es in AB Red” value ([2]; stored at 21-25° C., 120 days) was 23.7 µg/mL. The “Stability of Vitamin Es in AB Red” value ([2]; stored at 21-25° C., 150 days) was 23.4 µg/mL, the “Stability of Vitamin Es in AB Red” value ([2]; stored at 21-25° C., 180 days) was 23.3 µg/mL and the “Stability of Vitamin Es in AB Red” value ([2]; stored at 21-25° C., 210 days) was 22.7 µg/mL. For the same compound, the “Stability of Vitamin Es in AB Red” value ([2]; stored at 21-25° C., 240 days) was 23.1 µg/mL, the “Stability of Vitamin Es in AB Red” value ([2]; stored at 21-25° C., 270 days) was 23.1 µg/mL and the “Stability of Vitamin Es in AB Red” value ([2]; stored at 21-25° C., 300 days) was 23.5 µg/mL. For the same compound, the “Stability of Vitamin Es in AB Red” value ([2]; stored at 21-25° C., 330 days) was 22.6 µg/mL, the “Stability of Vitamin Es in AB Red” value ([2]; stored at 21-25° C., 360 days) was 21.9 µg/mL and the “Stability of Vitamin Es in AB Red” value ([2]; stored at 21-25° C., 390 days) was 22.7 µg/mL. For the same compound, the “Stability of Vitamin Es in AB Red” value ([2]; stored at 21-25° C., 420 days) was 22.5 µg/mL, the “Stability of Vitamin Es in AB Red” value ([2]; stored at 21-25° C., 450 days) was 22.3 µg/mL and the “Stability of Vitamin Es in AB Red” value ([2]; stored at 21-25° C., 480 days) was 21.6 µg/mL. For the same compound, the “Stability of Vitamin Es in AB Red” value ([2]; stored at 21-25° C., 510 days) was 21.4 µg/mL, the “Stability of Vitamin Es in AB Red” value ([2]; stored at 21-25° C., 540 days) was 21.0 µg/mL and the “Stability of Vitamin Es in AB Red” value ([2]; stored at 21-25° C., 570 days) was 21.4 µg/mL.
